Patent US20180148429A1 (SELVITA S.A., priority 2015, published 2018)
Read-outs that look alike come from different tables or passages of the source.

Target: T1, Human recombinant His-tagged PFKFB3 (Homo sapiens, UniProt Q16875)
T1 construct: His; made in house
Assay: PFKFB3 IC50 determination assay (in vitro kinase assay, modified ADP-Glo system)
Assay type: biochemical
Experimental: PFKFB3 IC50 Determination Assay
In vitro kinase assay used to determine IC50 values for tested inhibitors is based on a modified ADP-Glo™ system (Promega) and consists of two parts:
1. Kinase reaction—performed in optimized conditions. At this step PFKFB3 phosphorylates its substrate fructose-6-phosphate using ATP as a source of phosphate to produce fructose-2,6-bisphosphate and ADP. Reaction is performed at Km values for ATP and substrate using optimized buffer composition and time of the reaction. Human recombinant His-tagged PFKFB3 (PFKFB3 BATCH II SEC) with confirmed activity is produced and purified in-house.
2. Detection of ADP as a product of the reaction using ADP-Glo™ system. This part is conducted by using the commercially available kit ADP-Glo™ Kinase Assay (Promega, cat. No# V9103) according to manufacturer's instruction, modified by 5× dilutions of assay reagents (both ADP-Glo™ Reagent and Kinase Detection Solution).
Test compounds are dissolved in DMSO and then transferred to the V-bottom 96-well plate.
15 μL per well of Mix 1 is transferred to assay wells of 96-well white plate. […] Total reaction volume is 30 μL per well. Samples are tested in duplicates. Final concentration of DMSO in the reaction is 6.7%. Conditions needed for performing PFKFB3 (PFKFB3 BATCH II SEC) in vitro kinase assay are given below:
This protocol is based on Technical Bulletin, ADP-Glo™ Kinase Assay (Promega) and is adapted to 96-well plate containing 30 μL reaction mixture:
The plate is incubated for 90 minutes on a shaker at rt. […] Plate is incubated for 40 minutes on a shaker at rt, protected from light. Luminescence is measured in the plate reader Synergy 2 (BioTek).
Luminescent readouts for compounds tested in 10 concentrations (routinely from 100 μM to […], […] serial dilutions) in duplicates, as well as for positive control, are first normalized to no-substrate negative control by its subtraction. In the next step, % of normalized positive control is calculated for each data point and plotted against test compound concentration:
% of control—percent of positive control normalized to no-substrate negative control Lumcpd—luminescence of test compound Lumneg—luminescence of no-substrate negative control Lumpos—luminescence of positive control
IC50 parameter is determined by the GraphPad Prism 5.0 software
[log(inhibitor) vs. response−Variable slope (four parameters)].

[1] = ADP-Glo, ATP 20 μM (Km), fructose-6-phosphate 2 μM (Km), 25 nM PFKFB3, 2 h, rt, read-out: PFKFB3 IC50

T1 sequence (Q16875 whole entry): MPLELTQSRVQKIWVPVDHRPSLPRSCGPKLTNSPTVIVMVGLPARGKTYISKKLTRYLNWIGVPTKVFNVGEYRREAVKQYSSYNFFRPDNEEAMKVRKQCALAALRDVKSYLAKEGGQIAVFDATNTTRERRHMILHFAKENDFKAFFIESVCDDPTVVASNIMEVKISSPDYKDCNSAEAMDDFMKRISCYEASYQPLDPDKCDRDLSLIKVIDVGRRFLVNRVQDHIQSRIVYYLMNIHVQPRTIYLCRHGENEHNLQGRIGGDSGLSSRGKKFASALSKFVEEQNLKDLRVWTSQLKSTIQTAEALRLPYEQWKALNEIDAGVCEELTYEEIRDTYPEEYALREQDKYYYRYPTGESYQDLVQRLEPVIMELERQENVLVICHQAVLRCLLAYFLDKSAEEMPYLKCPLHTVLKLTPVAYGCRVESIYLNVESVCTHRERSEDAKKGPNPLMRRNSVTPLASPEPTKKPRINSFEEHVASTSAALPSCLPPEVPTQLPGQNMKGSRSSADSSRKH

Row | SMILES | IC50 [1] [nM] | IC50 [nM]
1 | CC(N)C(=O)N1CCC(C(Nc2cc(-c3ccc4ccn(C)c4c3)c3nccnc3c2)c2cccnc2)CC1 (stereo not drawn) [Example 274, 2-amino-1-[4-({[8-(1-methyl-1H-indol-6-yl)quinoxalin-6-yl]amino}(pyridin-3-yl)methyl)piperidin-1-yl]propan-1-one] | 1000 to 10000 | –
2 | CC(=O)NC1CCC(C(Nc2cc(-c3ccc4ccn(C)c4c3)c3nccnc3c2)c2cccnc2)CC1 (stereo not drawn) [Example 269, N-[4-({[8-(1-methyl-1H-indol-6-yl)quinoxalin-6-yl]amino}(pyridin-3-yl)methyl)cyclohexyl]acetamide] | 1 to 1000 | –
3 | Cn1ccc2ccc(-c3cc(NC4CCCN(C(=O)C5CC5)CC4)cc4nccnc34)cc21 (stereo not drawn) [Example 169] | 1 to 1000 | –
4 | Cn1ccc2ccc(-c3cc(N(Cc4cccnc4)c4cnccc4S(C)(=O)=O)cc4nccnc34)cc21 [Example 220] | 10000 to 100000 | –
5 | COc1ccc([C@H](Nc2cc(-c3ccc4ccn(C)c4c3)c3nccnc3c2)c2cccnc2)cn1 [Example 272, N-[(R)-(6-methoxypyridin-3-yl)(pyridin-3-yl)methyl]-8-(1-methyl-1H-indol-6-yl)quinoxalin-6-amine] | – | 1000 to 10000
6 | CC(C)C(=O)N1CCC(C(Nc2cc(-c3ccc4ccn(C)c4c3)c3nccnc3c2)c2cccnc2)CC1 (stereo not drawn) [Example 237] | 1 to 1000 | –
7 | CC(=O)N1CC[C@H](Nc2cc(-c3ccc4ccn(C)c4c3)c3nccnc3c2)C1 [Example 153] | 1000 to 10000 | –
8 | Cn1ccc2ccc(-c3cc(NC(c4cccnc4)c4cncnc4)cc4nccnc34)cc21 (stereo not drawn) [Example 257] | 1000 to 10000 | –
9 | CC(=O)N1CCC(C(Nc2cc(-c3ccc4scc(C)c4c3)c3nccnc3c2)c2cccnc2)CC1 (stereo not drawn) [Example 270, 1-[4-({[8-(3-methyl-1-benzothiophen-5-yl)quinoxalin-6-yl]amino}(pyridin-3-yl)methyl)piperidin-1-yl]ethan-1-one] | 1 to 1000 | –
10 | Cn1ccc2ccc(-c3cc(NCc4ccns4)cc4nccnc34)cc21 [Example 281, 8-(1-methyl-1H-indol-6-yl)-N-[(1,2-thiazol-5-yl)methyl]quinoxalin-6-amine] | 1 to 1000 | –
11 | CNC(=O)CN1CCC(C(Nc2cc(-c3ccc4ccn(C)c4c3)c3nccnc3c2)c2cccnc2)CC1 (stereo not drawn) [Example 275, N-methyl-2-[4-({[8-(1-methyl-1H-indol-6-yl)quinoxalin-6-yl]amino}(pyridin-3-yl)methyl)piperidin-1-yl]acetamide] | 1 to 1000 | –
12 | CN(C)C(=O)CN1CCC(C(Nc2cc(-c3ccc4ccn(C)c4c3)c3nccnc3c2)c2cccnc2)CC1 (stereo not drawn) [Example 276, N,N-dimethyl-2-[4-({[8-(1-methyl-1H-indol-6-yl)quinoxalin-6-yl]amino}(pyridin-3-yl)methyl)piperidin-1-yl]acetamide] | 1 to 1000 | –
13 | CCC(=O)N1CCC(C(Nc2cc(-c3ccc4ccn(C)c4c3)c3nccnc3c2)c2cccnc2)CC1 (stereo not drawn) [Example 238] | 1 to 1000 | –
14 | Cn1ccc2ccc(-c3cc(N[C@H]4CCN(c5nc6ccccc6[nH]5)C4)cc4nccnc34)cc21 [Example 161, N-[(3S)-1-(1H-1,3-benzodiazol-2-yl)pyrrolidin-3-yl]-8-(1-methyl-1H-indol-6-yl)quinoxalin-6-amine] | 1000 to 10000 | –
15 | Cc1csc2ccc(-c3cc(NC(c4cccnc4)C4CCNCC4)cc4nccnc34)cc12 (stereo not drawn) [Example 268, 8-(3-methyl-1-benzothiophen-5-yl)-N-[piperidin-4-yl(pyridin-3-yl)methyl]quinoxalin-6-amine] | 1 to 1000 | –

Now from value to molecule, other results behind:

Row | IC50 [1] [nM] | SMILES | IC50 [nM]
16 | 1 to 1000 | COc1ccc(C(Nc2cc(-c3ccc4scc(C)c4c3)c3nccnc3c2)c2cnnn2C)cn1 (stereo not drawn) [Example 302, N-[(6-methoxypyridin-3-yl)(1-methyl-1H-1,2,3-triazol-5-yl)methyl]-8-(3-methyl-1-benzothiophen-5-yl)quinoxalin-6-amine] | –
17 | 10000 to 100000 | COc1ccc(C(Nc2cc(-c3ccc4sc(N)nc4c3)c3nccnc3c2)C2CCN(C(C)=O)CC2)cn1 (stereo not drawn) [Example 291, 1-[4-({[8-(2-amino-1,3-benzothiazol-5-yl)quinoxalin-6-yl]amino}(6-methoxypyridin-3-yl)methyl)piperidin-1-yl]ethan-1-one] | –
18 | 10000 to 100000 | Cn1ccc2ccc(-c3cc(NCc4c[nH]cn4)cc4nccnc34)cc21 [Example 284, N-(1H-imidazol-4-ylmethyl)-8-(1-methyl-1H-indol-6-yl)quinoxalin-6-amine] | –
19 | 1 to 1000 | COc1ccc([C@@H](Nc2cc(-c3ccc4scc(C)c4c3)c3nccnc3c2)c2cnnn2C)cn1 [Example 323, N-[(R)-(6-methoxypyridin-3-yl)(1-methyl-1H-1,2,3-triazol-5-yl)methyl]-8-(3-methyl-1-benzothiophen-5-yl)quinoxalin-6-amine] | –
20 | 1 to 1000 | COc1ccc(C(Nc2cc(-c3ccc4ccn(C)c4c3)c3nccnc3c2)c2cncn2C)cn1 (stereo not drawn) [Example 314, N-[(6-methoxypyridin-3-yl)(1-methyl-1H-imidazol-5-yl)methyl]-8-(1-methyl-1H-indol-6-yl)quinoxalin-6-amine] | –
21 | 1000 to 10000 | CC(=O)N1CC(C(Nc2cc(-c3ccc4ccn(C)c4c3)c3nccnc3c2)c2cccnc2)C1 (stereo not drawn) [Example 289, 1-[3-({[8-(1-methyl-1H-indol-6-yl)quinoxalin-6-yl]amino}(pyridin-3-yl)methyl)azetidin-1-yl]ethan-1-one] | –
22 | 1 to 1000 | CC(=O)N1CCC([C@H](Nc2cc(-c3ccc4scc(C)c4c3)c3nccnc3c2)c2cccnc2)CC1 [Example 311, 1-{4-[(S)-{[8-(3-methyl-1-benzothiophen-5-yl)quinoxalin-6-yl]amino}(pyridin-3-yl)methyl]piperidin-1-yl}ethan-1-one] | –
23 | 1 to 1000 | Cn1ccc2ccc(-c3cc(NC(c4cccnc4)c4ccnc(N)c4)cc4nccnc34)cc21 (stereo not drawn) [Example 288, N-[(2-aminopyridin-4-yl)(pyridin-3-yl)methyl]-8-(1-methyl-1H-indol-6-yl)quinoxalin-6-amine] | –
24 | 1000 to 10000 | CNc1ccc(C(Nc2cc(-c3ccc4ccn(C)c4c3)c3nccnc3c2)c2cccnc2)cn1 (stereo not drawn) [Example 305, 8-(1-methyl-1H-indol-6-yl)-N-{[6-(methylamino)pyridin-3-yl](pyridin-3-yl)methyl}quinoxalin-6-amine] | –
25 | 1 to 1000 | Cc1csc2ccc(-c3cc(NC(c4cccnc4)c4cncn4C)cc4nccnc34)cc12 (stereo not drawn) [Example 313, 8-(3-methyl-1-benzothiophen-5-yl)-N-[(1-methyl-1H-imidazol-5-yl)(pyridin-3-yl)methyl]quinoxalin-6-amine] | –
26 | 1 to 1000 | Cn1ccc2ccc(-c3cc(NC(C)(c4cccnc4)c4cccnc4)cc4nccnc34)cc21 [Example 320, N-[1,1-bis(pyridin-3-yl)ethyl]-8-(1-methyl-1H-indol-6-yl)quinoxalin-6-amine] | –
27 | 1 to 1000 | Cn1ccc2ccc(-c3cc(NCc4ccnnc4)cc4nccnc34)cc21 [Example 322, 8-(1-methyl-1H-indol-6-yl)-N-(pyridazin-4-ylmethyl)quinoxalin-6-amine] | –
28 | 10000 to 100000 | CC(=O)Nc1ccc(C(Nc2cc(-c3ccc4ccn(C)c4c3)c3nccnc3c2)c2cccnc2)cn1 (stereo not drawn) [Example 307, N-[5-({[8-(1-methyl-1H-indol-6-yl)quinoxalin-6-yl]amino}(pyridin-3-yl)methyl)pyridin-2-yl]acetamide] | –
29 | 1 to 1000 | Cn1ccc2ccc(-c3cc(NC(c4cccnc4)C4CCN(S(C)(=O)=O)CC4)cc4nccnc34)cc21 (stereo not drawn) [Example 318, N-[(1-methanesulfonylpiperidin-4-yl)(pyridin-3-yl)methyl]-8-(1-methyl-1H-indol-6-yl)quinoxalin-6-amine] | –
30 | 1 to 1000 | COc1ccc(C(Nc2cc(-c3ccc4sc(N)nc4c3)c3nccnc3c2)c2cccnc2)cn1 (stereo not drawn) [Example 295, 8-(2-amino-1,3-benzothiazol-5-yl)-N-[(6-methoxypyridin-3-yl)(pyridin-3-yl)methyl]quinoxalin-6-amine] | –
31 | 1000 to 10000 | CC(=O)N1CCC([C@@H](Nc2cc(-c3ccc4scc(C)c4c3)c3nccnc3c2)c2cccnc2)CC1 [Example 310, 1-{4-[(R)-{[8-(3-methyl-1-benzothiophen-5-yl)quinoxalin-6-yl]amino}(pyridin-3-yl)methyl]piperidin-1-yl}ethan-1-one] | –
32 | 1 to 1000 | Cn1ccc2ccc(-c3cc(NC(c4cccnc4)C4CCC(N)CC4)cc4nccnc34)cc21 (stereo not drawn) [Example 308, N-[(4-aminocyclohexyl)(pyridin-3-yl)methyl]-8-(1-methyl-1H-indol-6-yl)quinoxalin-6-amine] | –
33 | 1000 to 10000 | Cc1ncc(CNc2cc(-c3ccc4ccn(C)c4c3)c3nccnc3c2)o1 [Example 312, N-[(2-methyl-1,3-oxazol-5-yl)methyl]-8-(1-methyl-1H-indol-6-yl)quinoxalin-6-amine] | –
